Read-outs that look alike come from different tables or passages of the source.
Experiments:
[1] = tested on: catalepsy induced by reserpine; assay: Anti-reserpine activity: antagonistic effect on catalepsy induced by reserpine; type: in vivo, male STD-ddY strain mice; settings: p.o.; for ED50: Mus musculus, po, 1 h, reserpine 5 mg/kg i.p.
Experimental: In the experiments, ED50 was calculated by Litchfield-Wilcoxon method. Male STD-ddY strain mice, weighing […], were used in groups of 10 mice each. […] The mice were tested for catalepsy 1 hour after the administration of test compounds. ED50 was calculated for each compound.

[2] = tested on: spontaneous and methamphetamine-induced locomotor activities; assay: Neuroleptics-like activity, overall (Test 2); type: in vivo, male STD-ddY strain mice; settings: overall conclusion
Experimental: Each test compound was given orally to the mice in 5 different doses, and 2 hours later the spontaneous locomotor activity of each mouse was measured for 3 minutes by means of an Animex locomotor activity meter (made by Farad Electronics). ED50 was calculated for each compound.

[3] = tested on: brain 5-hydroxyindoleacetic acid (5-HIAA); assay: Effect on brain monoamine metabolites: 5-HIAA; type: in vivo, male Wistar strain rats; settings: 100 mg/kg p.o.; for Brain 5-HIAA, % of control: *P<0.01
Experimental: Each test compound was given orally to the rats in a dose of 100 mg/kg and, 1, 3 and 6 hours later the rats were sacrificed. […] The concentrations of the monoamine metabolites were calculated in terms of ng/g wet brain tissue and expressed as % of the concentrations of controls receiving saline.

[4] = tested on: methamphetamine-induced locomotor activity; assay: Anti-methamphetamine effect (inhibitory effect on methamphetamine-induced locomotor activity); type: in vivo, male STD-ddY strain mice
Experimental: Pharmacological experiments have been done on the compound of the present invention, some known and novel analogous compounds and an antidepressant on the market, as mentioned below. In the experiments, ED50 was calculated by Litchfield-Wilcoxon method.
Male STD-ddY strain mice, weighing 20-25 g, were used in groups of 10 mice each. Groups of mice were injected intraperitoneally with 4 mg/kg of methamphetamine, and 30 minutes later each test compound was injected intraperitoneally in 3 different doses. One hour after the injection of methamphetamine, locomotor activity of each mouse was measured for 10 minutes with an Animex locomotor activity meter.

CCN1CCN(c2cc(-c3ccccc3)c3ccccc3n2)CC1.Cl.Cl [A, 2-(4-Ethyl-1-piperazinyl)-4-phenylquinoline dihydrochloride]
ED50 ([1]; Table 1, read-out: Anti-reserpine activity ED50, catalepsy): 1.5 mg/kg
ED50 ([1]; Table 2, read-out: Anti-reserpine ED50, catalepsy): 1.5 mg/kg
Potency in antagonizing reserpine catalepsy relative to imipramine ([1]; versus imipramine): 25.5 times more powerful
Neuroleptics-like activity (in words) [2]: shows some neuroleptics-like effects
Brain 5-HIAA concentration / serotonin turnover (in words) [3]: does not affect brain 5-HIAA concentration
Brain 5-HIAA, % of control ([3]; 1 hour): 118 % of control
Brain 5-HIAA, % of control ([3]; 3 hours): 110 % of control
Brain 5-HIAA, % of control ([3]; 6 hours): 116 % of control
ED50 ([4]; Mus musculus, ip, methamphetamine 4 mg/kg i.p., read-out: Anti-methamphetamine ED50): 8 mg/kg
Activity relative to chlorpromazine, methamphetamine-induced locomotor activity ([4]; fraction of chlorpromazine activity, i.p.): about 1/8

— patent US4237135A, “2-(4-Ethyl-1-piperazinyl)-4-phenylquinoline, process for preparation thereof, and composition thereof” (Dainippon Pharmaceutical Co., Ltd., priority 1978, dated 1980)
